Key:
Pseudomonas aeruginosa = test: Growth testing against ESKAPE pathogens: Pseudomonas aeruginosa; type: cell-based; parameters: key: Growth; X: No Growth
Method: (§1) Six analogs (FIG. 2) of the ciprofloxacin-N thiolated β-lactam were successfully synthesized. All these compounds were then tested against ESKAPE pathogens for bioactivity. The ESKAPE pathogens are a collection of six deadly superbugs, Enterococcus faecium, Staphylococcus aureus, Klebsiella pneumoniae, Acinetobacter baumannii, Pseudomonas aeruginosa, and Enterobacter species. […] G denotes growth and X denotes no growth in the tables.

Enterococcus faecium = test: Growth testing against ESKAPE pathogens: Enterococcus faecium; type: cell-based; parameters: key: Growth; X: No Growth
Method: as §1

Acinetobacter baumannii = test: Growth testing against ESKAPE pathogens: Acinetobacter baumannii; type: cell-based; parameters: key: Growth; X: No Growth
Method: as §1

Staphylococcus aureus = test: Growth testing against ESKAPE pathogens: Staphylococcus aureus; type: cell-based; parameters: key to Activity against Staphylococcus aureus (growth observed): Growth; X: No Growth
Method: as §1

Klebesiella pneumonia = test: Growth testing against ESKAPE pathogens: Klebesiella pneumonia; type: cell-based, Klebsiella pneumoniae; parameters: key: Growth; X: No Growth
Method: as §1

CCCCCC(=O)N1CCN(c2cc3c(cc2F)c(=O)c(C(=O)OC2C(=O)N(c4ccc(OC)cc4)C2c2ccccc2Cl)cn3C2CC2)CC1 (stereo not shown) [Lactam 128]
G: Activity against Pseudomonas aeruginosa (growth observed) (Pseudomonas aeruginosa; 1 μg/ml) | Activity against Pseudomonas aeruginosa (growth observed) (Pseudomonas aeruginosa; 2 μg/ml) | Activity against Pseudomonas aeruginosa (growth observed) (Pseudomonas aeruginosa; 3 μg/ml) | Activity against Pseudomonas aeruginosa (growth observed) (Pseudomonas aeruginosa; 4 μg/ml) | Activity against Pseudomonas aeruginosa (growth observed) (Pseudomonas aeruginosa; 5 μg/ml) | Activity against Pseudomonas aeruginosa (growth observed) (Pseudomonas aeruginosa; 6 μg/ml) | Activity against Pseudomonas aeruginosa (growth observed) (Pseudomonas aeruginosa; 7 μg/ml) | Activity against Pseudomonas aeruginosa (growth observed) (Pseudomonas aeruginosa; 8 μg/ml) | Activity against Pseudomonas aeruginosa (growth observed) (Pseudomonas aeruginosa; 9 μg/ml) | Activity against Pseudomonas aeruginosa (growth observed) (Pseudomonas aeruginosa; 10 μg/ml) | Activity against Pseudomonas aeruginosa (growth observed) (Pseudomonas aeruginosa; 25 μg/ml) | Activity against Enterococcus faecium (growth observed) (Enterococcus faecium; 1 μg/ml) | Activity against Enterococcus faecium (growth observed) (Enterococcus faecium; 2 μg/ml) | Activity against Enterococcus faecium (growth observed) (Enterococcus faecium; 3 μg/ml) | Activity against Enterococcus faecium (growth observed) (Enterococcus faecium; 4 μg/ml) | Activity against Enterococcus faecium (growth observed) (Enterococcus faecium; 5 μg/ml) | Activity against Enterococcus faecium (growth observed) (Enterococcus faecium; 6 μg/ml) | Activity against Enterococcus faecium (growth observed) (Enterococcus faecium; 7 μg/ml) | Activity against Enterococcus faecium (growth observed) (Enterococcus faecium; 8 μg/ml) | Activity against Enterococcus faecium (growth observed) (Enterococcus faecium; 9 μg/ml) | Activity against Enterococcus faecium (growth observed) (Enterococcus faecium; 10 μg/ml) | Activity against Enterococcus faecium (growth observed) (Enterococcus faecium; 25 μg/ml) | Activity against Acinetobacter baumannii (growth observed) (Acinetobacter baumannii; 1 μg/ml) | Activity against Acinetobacter baumannii (growth observed) (Acinetobacter baumannii; 2 μg/ml) | Activity against Acinetobacter baumannii (growth observed) (Acinetobacter baumannii; 3 μg/ml) | Activity against Acinetobacter baumannii (growth observed) (Acinetobacter baumannii; 4 μg/ml) | Activity against Acinetobacter baumannii (growth observed) (Acinetobacter baumannii; 5 μg/ml) | Activity against Acinetobacter baumannii (growth observed) (Acinetobacter baumannii; 6 μg/ml) | Activity against Acinetobacter baumannii (growth observed) (Acinetobacter baumannii; 7 μg/ml) | Activity against Acinetobacter baumannii (growth observed) (Acinetobacter baumannii; 8 μg/ml) | Activity against Acinetobacter baumannii (growth observed) (Acinetobacter baumannii; 9 μg/ml) | Activity against Acinetobacter baumannii (growth observed) (Acinetobacter baumannii; 10 μg/ml) | Activity against Acinetobacter baumannii (growth observed) (Acinetobacter baumannii; 25 μg/ml) | Activity against Staphylococcus aureus (growth observed) (Staphylococcus aureus; 1 μg/ml) | Activity against Staphylococcus aureus (growth observed) (Staphylococcus aureus; 2 μg/ml) | Activity against Staphylococcus aureus (growth observed) (Staphylococcus aureus; 3 μg/ml) | Activity against Staphylococcus aureus (growth observed) (Staphylococcus aureus; 4 μg/ml) | Activity against Staphylococcus aureus (growth observed) (Staphylococcus aureus; 5 μg/ml) | Activity against Staphylococcus aureus (growth observed) (Staphylococcus aureus; 6 μg/ml) | Activity against Staphylococcus aureus (growth observed) (Staphylococcus aureus; 7 μg/ml) | Activity against Staphylococcus aureus (growth observed) (Staphylococcus aureus; 8 μg/ml) | Activity against Staphylococcus aureus (growth observed) (Staphylococcus aureus; 9 μg/ml) | Activity against Staphylococcus aureus (growth observed) (Staphylococcus aureus; 10 μg/ml) | Activity against Staphylococcus aureus (growth observed) (Staphylococcus aureus; 25 μg/ml) | Activity against Klebesiella pneumonia (growth observed) (Klebesiella pneumonia; 1 μg/ml) | Activity against Klebesiella pneumonia (growth observed) (Klebesiella pneumonia; 2 μg/ml) | Activity against Klebesiella pneumonia (growth observed) (Klebesiella pneumonia; 3 μg/ml) | Activity against Klebesiella pneumonia (growth observed) (Klebesiella pneumonia; 4 μg/ml) | Activity against Klebesiella pneumonia (growth observed) (Klebesiella pneumonia; 5 μg/ml) | Activity against Klebesiella pneumonia (growth observed) (Klebesiella pneumonia; 6 μg/ml) | Activity against Klebesiella pneumonia (growth observed) (Klebesiella pneumonia; 7 μg/ml) | Activity against Klebesiella pneumonia (growth observed) (Klebesiella pneumonia; 8 μg/ml) | Activity against Klebesiella pneumonia (growth observed) (Klebesiella pneumonia; 9 μg/ml) | Activity against Klebesiella pneumonia (growth observed) (Klebesiella pneumonia; 10 μg/ml) | Activity against Klebesiella pneumonia (growth observed) (Klebesiella pneumonia; 25 μg/ml)

Source: patent publication US10010545B1, “Antibiotic compositions and methods of use” (University of South Florida, priority 2013, dated 2018)
